Tested on: MV-4-11 cells
Experiment: Gene expression microarray analysis (Affymetrix PrimeView) and GSEA
Format: cell-based, human
Set-up: RFU PODN (11730768_x_at) / Fold change /veh PODN (11730768_x_at) / RFU LINC00158 (11744669_a_at) / Fold change /veh LINC00158 (11744669_a_at) / RFU DUSP10 (11751237_a_at) / Fold change /veh DUSP10 (11751237_a_at) / RFU ID3 (11757404_x_at) / Fold change /veh ID3 (11757404_x_at) / RFU PLEKHG5 (11737974_s_at) / Fold change /veh PLEKHG5 (11737974_s_at) / RFU LRRC4B (11730491_at) / Fold change /veh LRRC4B (11730491_at) / RFU GIMAP4 (11747438_a_at) / Fold change /veh GIMAP4 (11747438_a_at) / RFU KRT8 (11758183_x_at) / Fold change /veh KRT8 (11758183_x_at) / RFU CNN1 (11734310_a_at) / Fold change /veh CNN1 (11734310_a_at) / RFU VPS37D (11726825_at) / Fold change /veh VPS37D (11726825_at) / RFU C10orf10 (11716522_x_at) / Fold change /veh C10orf10 (11716522_x_at) / RFU KIR2DL2 /// KIR2DL4 /// KIR2DL5A /// KIR2DL5B /// KIR2DS1 /// KIR2DS2 /// KIR2DS3 /// KIR2DS4 /// KIR3DL3 /// KIR3DL3 /// KIR3DS1 (11738374_at) / Fold change /veh KIR2DL2 /// KIR2DL4 /// KIR2DL5A /// KIR2DL5B /// KIR2DS1 /// KIR2DS2 /// KIR2DS3 /// KIR2DS4 /// KIR3DL3 /// KIR3DL3 /// KIR3DS1 (11738374_at) / RFU C1QL1 (11718748_at) / Fold change /veh C1QL1 (11718748_at) / RFU TMPRSS4 (11747572_a_at) / Fold change /veh TMPRSS4 (11747572_a_at) / RFU HAMP (11756126_x_at) / Fold change /veh HAMP (11756126_x_at) / RFU RNFT2 (11725882_a_at) / Fold change /veh RNFT2 (11725882_a_at) / RFU NR4A2 (11747474_a_at) / Fold change /veh NR4A2 (11747474_a_at) / RFU ABCC12 (11746883_a_at) / Fold change /veh ABCC12 (11746883_a_at) / RFU TMEM136 (11760407_x_at) / Fold change /veh TMEM136 (11760407_x_at) / RFU CLDN22 /// WWC2 (11732394_at) / Fold change /veh CLDN22 /// WWC2 (11732394_at) / RFU HLA-DPB1 (11760878_x_at) / Fold change /veh HLA-DPB1 (11760878_x_at) / RFU SPINT1 (11716480_a_at) / Fold change /veh SPINT1 (11716480_a_at) / RFU GAP43 (11754022_s_at) / Fold change /veh GAP43 (11754022_s_at) / RFU A4GNT (11735810_at) / Fold change /veh A4GNT (11735810_at) / RFU PRB3 (11715151_x_at) / Fold change /veh PRB3 (11715151_x_at) / RFU TUBB4B (11761932_at) / Fold change /veh TUBB4B (11761932_at) / RFU CAPN14 (11732068_a_at) / Fold change /veh CAPN14 (11732068_a_at) / RFU TMCC2 (11721928_a_at) / Fold change /veh TMCC2 (11721928_a_at) / RFU IRGQ (11745062_a_at) / Fold change /veh IRGQ (11745062_a_at) / RFU FAM174B (11720279_a_at) / Fold change /veh FAM174B (11720279_a_at) / RFU TMPRSS4 (11748680_a_at) / Fold change /veh TMPRSS4 (11748680_a_at) / RFU FAM212B (11763350_a_at) / Fold change /veh FAM212B (11763350_a_at) / RFU PLEKHG5 (11743358_a_at) / Fold change /veh PLEKHG5 (11743358_a_at) / RFU ZSCAN30 (11745921_a_at) / Fold change /veh ZSCAN30 (11745921_a_at) / RFU CMKLR1 (11741424_a_at) / Fold change /veh CMKLR1 (11741424_a_at) / RFU LOC101060620 /// MAPK8IP1 (11723275_at) / Fold change /veh LOC101060620 /// MAPK8IP1 (11723275_at) / RFU SPTSSB (11747773_x_at) / Fold change /veh SPTSSB (11747773_x_at) / RFU PRSS12 (11739890_at) / Fold change /veh PRSS12 (11739890_at) / RFU BIN1 (11741810_x_at) / Fold change /veh BIN1 (11741810_x_at) / RFU WNT11 (11732464_a_at) / Fold change /veh WNT11 (11732464_a_at) / RFU C10orf10 (11716521_a_at) / Fold change /veh C10orf10 (11716521_a_at) / RFU C5orf56 (11738089_at) / Fold change /veh C5orf56 (11738089_at) / RFU CYB561 (11721691_x_at) / Fold change /veh CYB561 (11721691_x_at) / RFU ANKRD19P (11752326_a_at) / Fold change /veh ANKRD19P (11752326_a_at) / RFU OR2T12 /// OR2T33 /// OR2T8 (11738714_s_at) / Fold change /veh OR2T12 /// OR2T33 /// OR2T8 (11738714_s_at) / RFU VCAN (11748164_a_at) / Fold change /veh VCAN (11748164_a_at) / RFU JSRP1 (11732532_at) / Fold change /veh JSRP1 (11732532_at) / RFU KRTAP10-11 (11738290_x_at) / Fold change /veh KRTAP10-11 (11738290_x_at) / RFU MYO3A (11730013_a_at) / Fold change /veh MYO3A (11730013_a_at) / RFU EBF3 (11725865_a_at) / Fold change /veh EBF3 (11725865_a_at) / RFU CAMK2N1 (11719241_x_at) / Fold change /veh CAMK2N1 (11719241_x_at) / RFU C5orf56 (11738088_a_at) / Fold change /veh C5orf56 (11738088_a_at) / RFU OLFML3 (11715873_a_at) / Fold change /veh OLFML3 (11715873_a_at) / RFU LOC100653217 /// NTM (11731650_a_at) / Fold change /veh LOC100653217 /// NTM (11731650_a_at) / RFU MAPK11 (11762145_a_at) / Fold change /veh MAPK11 (11762145_a_at) / RFU FIZ1 (11724087_x_at) / Fold change /veh FIZ1 (11724087_x_at) / RFU OASL (11726364_x_at) / Fold change /veh OASL (11726364_x_at) / RFU SOX15 (11748057_x_at) / Fold change /veh SOX15 (11748057_x_at) / RFU CD79A (11719716_a_at) / Fold change /veh CD79A (11719716_a_at) / RFU HIST1H1D (11736915_at) / Fold change /veh HIST1H1D (11736915_at) / RFU CASKIN2 (11723855_a_at) / Fold change /veh CASKIN2 (11723855_a_at) / RFU LOC730098 (11760151_x_at) / Fold change /veh LOC730098 (11760151_x_at) / RFU OR4N2 (11742367_at) / Fold change /veh OR4N2 (11742367_at) / RFU PRRT2 (11749266_a_at) / Fold change /veh PRRT2 (11749266_a_at) / RFU SNX32 (11753110_a_at) / Fold change /veh SNX32 (11753110_a_at) / RFU CDHR5 (11726645_a_at) / Fold change /veh CDHR5 (11726645_a_at) / RFU RCAN1 (11760418_a_at) / Fold change /veh RCAN1 (11760418_a_at) / RFU FAM167A (11723789_a_at) / Fold change /veh FAM167A (11723789_a_at) / RFU FAM26E (11764081_at) / Fold change /veh FAM26E (11764081_at) / RFU ISYNA1 (11749810_s_at) / Fold change /veh ISYNA1 (11749810_s_at) / RFU ACY1 (11761880_at) / Fold change /veh ACY1 (11761880_at) / RFU 11764098_at / Fold change /veh 11764098_at / RFU SAMD14 (11745864_x_at) / Fold change /veh SAMD14 (11745864_x_at) / RFU NPB (11741838_a_at) / Fold change /veh NPB (11741838_a_at) / RFU TMPRSS6 (11731388_a_at) / Fold change /veh TMPRSS6 (11731388_a_at) / RFU KRTAP10-2 (11738614_at) / Fold change /veh KRTAP10-2 (11738614_at) / RFU ARHGAP8 /// PRR5-ARHGAP8 (11727945_x_at) / Fold change /veh ARHGAP8 /// PRR5-ARHGAP8 (11727945_x_at) / RFU KRTAP5-7 /// NADSYN1 (11734609_at) / Fold change /veh KRTAP5-7 /// NADSYN1 (11734609_at) / RFU RASL12 (11751679_a_at) / Fold change /veh RASL12 (11751679_a_at) / RFU CDKN2B (11736163_a_at) / Fold change /veh CDKN2B (11736163_a_at) / RFU PRF1 (11729649_at) / Fold change /veh PRF1 (11729649_at) / RFU, ZNF638 /// ZNF638-IT1 / Fold change vs veh, ZNF638 /// ZNF638-IT1 / RFU, PANK3 / Fold change vs veh, PANK3 / RFU, SH3YL1 / Fold change vs veh, SH3YL1 / RFU, ZEB2 / Fold change vs veh, ZEB2 / RFU, NRIP1 / Fold change vs veh, NRIP1 / RFU, PTTG1IP / Fold change vs veh, PTTG1IP / RFU, CAPN2 / Fold change vs veh, CAPN2 / RFU, MED14 / Fold change vs veh, MED14 / RFU, SNORA58 / Fold change vs veh, SNORA58 / RFU, C1orf63 / Fold change vs veh, C1orf63 / RFU, LRRFIP1 / Fold change vs veh, LRRFIP1 / RFU, NDUFAF7 / Fold change vs veh, NDUFAF7 / RFU, SLC12A2 / Fold change vs veh, SLC12A2 / RFU, IBTK / Fold change vs veh, IBTK / RFU, ESF1 / Fold change vs veh, ESF1 / Fold change vs veh, TMEM50B / RFU, TAOK1 / Fold change vs veh, TAOK1 / RFU, ACBD3 / Fold change vs veh, ACBD3 / RFU, TMA16 / Fold change vs veh, TMA16 / RFU, RWDD3 / Fold change vs veh, RWDD3 / RFU, BCAT1 / Fold change vs veh, BCAT1 / RFU, EDEM3 / Fold change vs veh, EDEM3 / RFU, TMEM33 / Fold change vs veh, TMEM33 / RFU, WDR75 / Fold change vs veh, WDR75 / RFU, AHCTF1 / Fold change vs veh, AHCTF1 / RFU, TFRC / Fold change vs veh, TFRC / RFU, ZDHHC17 / Fold change vs veh, ZDHHC17 / RFU, NOM1 / Fold change vs veh, NOM1 / RFU, ARL8B / Fold change vs veh, ARL8B / RFU, ZBTB11 / Fold change vs veh, ZBTB11 / RFU, TAMM41 / Fold change vs veh, TAMM41 / RFU, KIAA1704 /// LOC100996395 / Fold change vs veh, KIAA1704 /// LOC100996395 / RFU, ING1 / Fold change vs veh, ING1 / RFU, TRMT61B / Fold change vs veh, TRMT61B / RFU, FUBP3 / Fold change vs veh, FUBP3 / RFU, TP53 / Fold change vs veh, TP53 / RFU, TNKS2 / Fold change vs veh, TNKS2 / RFU, ZFP14 / Fold change vs veh, ZFP14 / RFU, ACTR2 / Fold change vs veh, ACTR2 / RFU, PPP3R1 / Fold change vs veh, PPP3R1 / RFU, PIK3R1 / Fold change vs veh, PIK3R1 / RFU, HNRNPA1 / Fold change vs veh, HNRNPA1 / RFU, RNF170 / Fold change vs veh, RNF170 / RFU, ZNF28 / Fold change vs veh, ZNF28 / RFU, RNGTT / Fold change vs veh, RNGTT / RFU, OGT / Fold change vs veh, OGT / RFU, BRD1 / Fold change vs veh, BRD1 / RFU, MARS / Fold change vs veh, MARS / RFU, ZNF655 / Fold change vs veh, ZNF655 / RFU, FAHD1 / Fold change vs veh, FAHD1 / RFU, BDP1 / Fold change vs veh, BDP1 / RFU, LRRCC1 / Fold change vs veh, LRRCC1 / RFU, ARID1A / Fold change vs veh, ARID1A / RFU, ZNF146 / Fold change vs veh, ZNF146 / RFU, ZNF330 / Fold change vs veh, ZNF330 / RFU, GPN3 / Fold change vs veh, GPN3 / RFU, C9orf123 / Fold change vs veh, C9orf123 / RFU, N4BP2L2 / Fold change vs veh, N4BP2L2 / RFU, ARFIP1 / Fold change vs veh, ARFIP1 / RFU, FAM179B / Fold change vs veh, FAM179B / RFU, BCL10 / Fold change vs veh, BCL10 / RFU, UHRF1BP1L / Fold change vs veh, UHRF1BP1L / RFU, BET1 / Fold change vs veh, BET1 / RFU, CNOT2 / Fold change vs veh, CNOT2 / RFU, ZNF268 / Fold change vs veh, ZNF268 / Fold change vs veh, ZNF507 / RFU, DGCR2 / Fold change vs veh, DGCR2 / RFU, WDSUB1 / Fold change vs veh, WDSUB1 / Fold change vs veh, HSP90B1 /// MIR3652 / RFU, ADSS / Fold change vs veh, ADSS / RFU, GK / Fold change vs veh, GK / RFU, ZNF148 / Fold change vs veh, ZNF148 / RFU, TAF9 / Fold change vs veh, TAF9 / RFU, SLC1A5 / Fold change vs veh, SLC1A5 / RFU, SLMO2 / Fold change vs veh, SLMO2 / RFU, ABCC4 / Fold change vs veh, ABCC4 / RFU, LOC101060439 /// RAP1B / Fold change vs veh, LOC101060439 /// RAP1B / RFU, RFX7 / Fold change vs veh, RFX7 / RFU, GTPBP10 / Fold change vs veh, GTPBP10 / RFU, CNEP1R1 / Fold change vs veh, CNEP1R1 / RFU, BIVM-ERCC5 /// ERCC5 / Fold change vs veh, BIVM-ERCC5 /// ERCC5 / RFU, ILF3 / Fold change vs veh, ILF3 / RFU 11762660_at / Fold change /veh 11762660_at / RFU VCAN (11757783_s_at) / Fold change /veh VCAN (11757783_s_at) / RFU DDX43 (11728927_at) / Fold change /veh DDX43 (11728927_at) / RFU KRT8 (11758188_x_at) / Fold change /veh KRT8 (11758188_x_at) / RFU NKD1 (11759106_at) / Fold change /veh NKD1 (11759106_at) / RFU SRD5A1 (11742802_a_at) / Fold change /veh SRD5A1 (11742802_a_at) / RFU TPSAB1 /// TPSB2 (11721975_s_at) / Fold change /veh TPSAB1 /// TPSB2 (11721975_s_at) / RFU GSTM3 (11746129_a_at) / Fold change /veh GSTM3 (11746129_a_at) / RFU IL23R (11737362_x_at) / Fold change /veh IL23R (11737362_x_at) / RFU TMEM51 (11727254_a_at) / Fold change /veh TMEM51 (11727254_a_at) / RFU PIWIL2 (11732686_x_at) / Fold change /veh PIWIL2 (11732686_x_at) / RFU ORM1 (11744905_x_at) / Fold change /veh ORM1 (11744905_x_at) / RFU CCDC152 (11743942_at) / Fold change /veh CCDC152 (11743942_at) / RFU ECM1 (11717891_a_at) / Fold change /veh ECM1 (11717891_a_at) / RFU IL23R (11748794_a_at) / Fold change /veh IL23R (11748794_a_at) / RFU TNFAIP8L3 (11732012_x_at) / Fold change /veh TNFAIP8L3 (11732012_x_at) / RFU MBOAT4 (11741988_at) / Fold change /veh MBOAT4 (11741988_at) / RFU 11764193_at / Fold change /veh 11764193_at / RFU TMEM53 (11763286_at) / Fold change /veh TMEM53 (11763286_at) / RFU MAGEB2 (11727129_at) / Fold change /veh MAGEB2 (11727129_at) / RFU TMEM200A (11744735_a_at) / Fold change /veh TMEM200A (11744735_a_at) / RFU CCDC152 (11751479_a_at) / Fold change /veh CCDC152 (11751479_a_at) / RFU FAM211A (11726209_a_at) / Fold change /veh FAM211A (11726209_a_at) / RFU RGS16 (11746705_a_at) / Fold change /veh RGS16 (11746705_a_at) / RFU VCAN (11755009_s_at) / Fold change /veh VCAN (11755009_s_at) / RFU RHOB (11743442_s_at) / Fold change /veh RHOB (11743442_s_at) / RFU RGS16 (11720943_a_at) / Fold change /veh RGS16 (11720943_a_at) / RFU RGS16 (11720944_at) / Fold change /veh RGS16 (11720944_at) / RFU, VPS4B / Fold change vs veh, VPS4B / RFU, CREB1 / Fold change vs veh, CREB1 / RFU, DNAJC13 / Fold change vs veh, DNAJC13 / RFU, GNAQ / Fold change vs veh, GNAQ / RFU, CDK5R1 / Fold change vs veh, CDK5R1 / RFU, ZRANB3 / Fold change vs veh, ZRANB3 / RFU, CUL4A / Fold change vs veh, CUL4A / RFU, CCNY / Fold change vs veh, CCNY / RFU, UFL1 / Fold change vs veh, UFL1 / RFU, COG3 / Fold change vs veh, COG3 / RFU, DIAPH2 / Fold change vs veh, DIAPH2 / RFU, SKA2 / Fold change vs veh, SKA2 / RFU, AFF3 / Fold change vs veh, AFF3 / RFU, LMF1 / Fold change vs veh, LMF1 / RFU, IPO11 / Fold change vs veh, IPO11 / RFU, DFFB / Fold change vs veh, DFFB / RFU, FOXP1 / Fold change vs veh, FOXP1 / RFU, CARD8 / Fold change vs veh, CARD8 / RFU, STRN3 / Fold change vs veh, STRN3 / RFU, ADK / Fold change vs veh, ADK / RFU, RASSF2 / Fold change vs veh, RASSF2 / RFU, WIPF1 / Fold change vs veh, WIPF1 / RFU, LARP1B / Fold change vs veh, LARP1B / RFU, RASA1 / Fold change vs veh, RASA1 / RFU, RB1 / Fold change vs veh, RB1 / RFU, PPFIA1 / Fold change vs veh, PPFIA1 / RFU, MAT2A / Fold change vs veh, MAT2A / RFU, CCT5 / Fold change vs veh, CCT5 / RFU, WDR92 / Fold change vs veh, WDR92 / RFU, CUX1 / Fold change vs veh, CUX1 / RFU, TTC7A / Fold change vs veh, TTC7A / RFU, TMEM135 / Fold change vs veh, TMEM135 / RFU, DEPTOR / Fold change vs veh, DEPTOR / RFU, CPM / Fold change vs veh, CPM / RFU, DNAJB6 / Fold change vs veh, DNAJB6 / RFU, CACNA2D3 / Fold change vs veh, CACNA2D3 / RFU, DTX4 / Fold change vs veh, DTX4 / RFU, TFCP2 / Fold change vs veh, TFCP2 / RFU, GMCL1 /// GMCL1P1 / Fold change vs veh, GMCL1 /// GMCL1P1 / RFU, AEBP2 / Fold change vs veh, AEBP2 / RFU, SNHG1 /// SNORD22 /// SNORD25 /// SNORD26 /// SNORD27 /// SNORD28 /// SNORD29 /// SNORD31 / Fold change vs veh, SNHG1 /// SNORD22 /// SNORD25 /// SNORD26 /// SNORD27 /// SNORD28 /// SNORD29 /// SNORD31 / Fold change (Aza/veh), C12orf56 (ProbeSet 11735607_a_at) / Fold change (ACY-1035/veh), C12orf56 (ProbeSet 11735607_a_at) / Fold change (Aza/veh), FGFR1OP (ProbeSet 11751329_s_at) / Fold change (ACY-1035/veh), FGFR1OP (ProbeSet 11751329_s_at) / Fold change (Aza/veh), VPS36 (ProbeSet 11739960_a_at) / Fold change (ACY-1035/veh), VPS36 (ProbeSet 11739960_a_at) / RFU SYPL1 (11715823_x_at) / Fold change /veh SYPL1 (11715823_x_at) / RFU IGFBP7 (11715501_s_at) / Fold change /veh IGFBP7 (11715501_s_at) / RFU REEP3 (11722064_at) / Fold change /veh REEP3 (11722064_at) / RFU IGLL1 (11728026_x_at) / Fold change /veh IGLL1 (11728026_x_at): dose or concentration left out as unconfirmed
Details: ProbeSet 11717308_a_at; LIST B

Nc1ncn([C@@H]2O[C@H](CO)[C@@H](O)[C@H]2O)c(=O)n1 [azacitidine]
RFU, WDR75: 348.11 RFU
